In general, IC50 refers to the concentration at which inhibition is half-maximal. A lower IC50 goes with higher potency.

Molecules are shown by their SMILES.

This assay deals with Integrin alpha-V/beta-3 (Homo sapiens). Description: Inhibition of human Integrin alphaVbeta3 isolated receptors assessed by standard competitive binding assay.
In turn, `COCCOCCOCCOCC(=O)Nc1cc(C[C@H](NS(=O)(=O)c2cccc(C(F)(F)F)c2)C(=O)O)ccc1OCCCc1ccc2c(n1)NCCC2` gave a 50% inhibitory concentration (IC50) of 0.3 nM. `NCCOCCOCCOCCOCCOCCOCC(=O)Nc1cc(C[C@H](NS(=O)(=O)c2cccc(C(F)(F)F)c2)C(=O)O)ccc1OCCCc1ccc2c(n1)NCCC2`: the half-maximal inhibitory concentration (IC50) came out at 0.7 nM. To `Nc1cc(C[C@H](NS(=O)(=O)c2cccc(C(F)(F)F)c2)C(=O)O)ccc1OCCCc1ccc2c(n1)NCCC2` belongs 0.1 nM.
